Test results: patent US4167511A, “Methylsilacyclopentenyl-containing silylating agents and method therefor” (Dow Corning Corporation, priority 1978, dated 1979)

Assay: Silylating power: half-life of silylating agent in excess isopropyl alcohol at 35° C. (1H n.m.r.)
Format: physicochemical
Details: for Half-life in Excess Isopropanol: 0.1 ml. silylating agent in 0.5 ml. anhydrous isopropyl alcohol, 35° C., n.m.r.
Description: The compositions of this invention have unexpected silylating power. By the terms silylating and silylation it is meant a process wherein an active-hydrogen, i.e. one bond to an oxygen, sulfur or nitrogen atom, in a compound is replaced with a hydrocarbon-substituted silyl radical. Silylation, according to the process of this invention proceeds rapidly and, in many cases, essentially quantitatively thereby replacing an active-hydrogen with a methylsilacyclopentenyl radical. By silylating power it is meant the ability of a silylating agent to silylate isopropyl alcohol as indicated by the half-life of the silylating agent in excess isopropyl alcohol at 35° C., using standard chemical kinetic measuring methods hereinafter described. Silylating power is inversely related to said half-life.
Standard nuclear magnetic resonance (n.m.r.) tubes, 5 mm. O.D.×205 mm. long, were first charged with 0.1 ml. of the silylating agents listed in the Table and then with 0.5 ml. of anhydrous isopropyl alcohol using a dry box to insure anhydrous conditions. Immediately after the addition of isopropyl alcohol the tubes were stoppered, inverted at least once to mix the reactants, removed from the dry box, and, within 30 seconds after the addition of isopropyl alcohol, were placed in a varian A-60 ^1 H n.m.r. spectometer at 35° C. The n.m.r. spectrometer was preset to record the signal of the hydrogen atoms in the silicon-bonded methyl group. In repeat experiments the n.m.r. spectrometer was preset to record the signal of the hydrogen atoms in the methyl groups of N-methylacetamideor the nitrogen-bound hydrogen atom in epsilon-caprolactam. Where possible the reaction was followed by taking several readings of the appropriate n.m.r. signal intensity over a period of time.
The compositions of this invention have a half-life which is too short to measure by this technique since they are completely reacted before the reaction mixture is placed in the n.m.r. spectrometer.

Compound | Half-life in Excess Isopropanol | silylating power (compared in words with triorganosilyl analogs, inversely related to half-life in excess isopropyl alcohol at 35° C.)
C=C[Si](C)(C)N(C)C(C)=O | 240 min | –
CC(=O)N(C)[Si](C)(C)c1ccccc1 | 55 min | –
CC(=O)N(C)[Si](C)(C)CCC(F)(F)F | 40 min | –
methylsilacyclopentenyl-N-methylacetamide | – | greater than that of trimethylsilyl-N-methylacetamide, dimethylvinylsilyl-N-methylacetamide, dimethylphenylsilyl-N-methylacetamide and dimethyl-3,3,3-trifluoropropylsllyl-N-methylacetamide
